Literature values as cited in patent US20230304100A1, “METHOD OF PREDICTING THERAPEUTIC RESPONSE AND PROGNOSIS OF METASTATIC BREAST CANCER TO CHEMOTHERAPEUTIC AGENTS, AND TREATING METASTATIC BREAST CANCER” (Samsung Life Public Welfare Foundation, priority 2021, published 2023).

Test system: premenopausal HR+/HER2− metastatic breast cancer patients
Settings: Young-PEARL study

CCCCCOC(=O)Nc1nc(=O)n([C@@H]2O[C@H](C)[C@@H](O)[C@H]2O)cc1F [capecitabine]
median progression-free survival (PFS): 14.4 months
